{"source": "ChEMBL document CHEMBL5291721", "about": "“A preclinical secondary pharmacology resource illuminates target-adverse drug reaction associations of marketed drugs” (Nat Commun, 2023); note: assay procedure not described here", "key": {"[1]": {"target": "T1, Amine oxidase [flavin-containing] A (Homo sapiens, UniProt P21397)", "T1 sequence (P21397 whole entry)": "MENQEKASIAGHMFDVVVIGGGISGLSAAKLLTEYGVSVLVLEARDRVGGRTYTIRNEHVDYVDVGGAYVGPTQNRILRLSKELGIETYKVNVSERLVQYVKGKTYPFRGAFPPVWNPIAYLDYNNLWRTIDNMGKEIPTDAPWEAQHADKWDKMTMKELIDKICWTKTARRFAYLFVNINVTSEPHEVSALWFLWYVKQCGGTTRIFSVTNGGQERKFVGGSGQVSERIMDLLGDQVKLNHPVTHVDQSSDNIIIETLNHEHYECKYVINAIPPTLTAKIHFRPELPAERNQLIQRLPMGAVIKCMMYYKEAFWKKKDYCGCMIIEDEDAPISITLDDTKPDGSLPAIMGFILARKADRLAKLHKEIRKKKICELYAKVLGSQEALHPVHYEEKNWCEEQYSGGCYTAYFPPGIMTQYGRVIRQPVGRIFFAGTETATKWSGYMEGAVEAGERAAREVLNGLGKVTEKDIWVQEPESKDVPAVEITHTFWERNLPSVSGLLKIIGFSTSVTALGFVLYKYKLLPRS", "type": "functional"}, "[2]": {"target": "Vascular endothelial growth factor receptor 2 (Homo sapiens, UniProt P35968)", "sequence (P35968 whole entry)": "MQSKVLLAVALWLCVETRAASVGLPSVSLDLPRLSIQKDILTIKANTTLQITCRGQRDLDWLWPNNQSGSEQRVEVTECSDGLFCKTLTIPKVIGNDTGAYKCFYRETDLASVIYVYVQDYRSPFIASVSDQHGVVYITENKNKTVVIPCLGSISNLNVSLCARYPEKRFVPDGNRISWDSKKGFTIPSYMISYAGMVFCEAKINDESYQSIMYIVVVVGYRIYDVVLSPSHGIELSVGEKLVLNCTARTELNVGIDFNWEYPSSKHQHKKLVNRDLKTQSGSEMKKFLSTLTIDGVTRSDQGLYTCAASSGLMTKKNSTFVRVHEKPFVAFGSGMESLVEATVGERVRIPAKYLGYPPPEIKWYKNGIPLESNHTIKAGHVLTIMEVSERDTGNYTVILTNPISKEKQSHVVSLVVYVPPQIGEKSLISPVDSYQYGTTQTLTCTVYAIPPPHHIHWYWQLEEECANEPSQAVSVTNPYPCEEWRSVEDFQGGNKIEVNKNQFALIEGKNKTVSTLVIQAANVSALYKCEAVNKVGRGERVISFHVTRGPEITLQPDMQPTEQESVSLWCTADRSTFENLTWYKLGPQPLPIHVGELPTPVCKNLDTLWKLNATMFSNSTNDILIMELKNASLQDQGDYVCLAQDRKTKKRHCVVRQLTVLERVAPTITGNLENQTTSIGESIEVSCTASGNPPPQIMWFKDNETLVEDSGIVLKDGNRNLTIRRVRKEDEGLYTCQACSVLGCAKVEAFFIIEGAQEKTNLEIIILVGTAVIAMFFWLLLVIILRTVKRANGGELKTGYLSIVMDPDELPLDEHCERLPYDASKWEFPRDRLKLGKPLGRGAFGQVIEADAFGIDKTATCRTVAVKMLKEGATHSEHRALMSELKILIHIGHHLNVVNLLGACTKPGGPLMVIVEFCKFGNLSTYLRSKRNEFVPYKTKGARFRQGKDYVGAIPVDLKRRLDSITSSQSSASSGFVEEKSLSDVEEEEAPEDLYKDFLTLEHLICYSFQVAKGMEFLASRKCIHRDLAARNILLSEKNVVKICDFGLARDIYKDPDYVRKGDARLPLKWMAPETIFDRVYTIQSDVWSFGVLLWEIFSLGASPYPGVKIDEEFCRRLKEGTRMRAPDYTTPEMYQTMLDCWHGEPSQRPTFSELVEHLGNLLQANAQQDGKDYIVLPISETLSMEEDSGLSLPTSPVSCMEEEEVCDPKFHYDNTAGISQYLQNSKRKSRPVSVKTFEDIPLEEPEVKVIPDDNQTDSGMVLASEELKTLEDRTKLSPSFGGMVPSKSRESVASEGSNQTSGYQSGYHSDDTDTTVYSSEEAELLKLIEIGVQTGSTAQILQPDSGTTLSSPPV", "type": "functional"}, "[3]": {"target": "Sodium-dependent noradrenaline transporter (Homo sapiens, UniProt P23975)", "sequence (P23975 whole entry)": "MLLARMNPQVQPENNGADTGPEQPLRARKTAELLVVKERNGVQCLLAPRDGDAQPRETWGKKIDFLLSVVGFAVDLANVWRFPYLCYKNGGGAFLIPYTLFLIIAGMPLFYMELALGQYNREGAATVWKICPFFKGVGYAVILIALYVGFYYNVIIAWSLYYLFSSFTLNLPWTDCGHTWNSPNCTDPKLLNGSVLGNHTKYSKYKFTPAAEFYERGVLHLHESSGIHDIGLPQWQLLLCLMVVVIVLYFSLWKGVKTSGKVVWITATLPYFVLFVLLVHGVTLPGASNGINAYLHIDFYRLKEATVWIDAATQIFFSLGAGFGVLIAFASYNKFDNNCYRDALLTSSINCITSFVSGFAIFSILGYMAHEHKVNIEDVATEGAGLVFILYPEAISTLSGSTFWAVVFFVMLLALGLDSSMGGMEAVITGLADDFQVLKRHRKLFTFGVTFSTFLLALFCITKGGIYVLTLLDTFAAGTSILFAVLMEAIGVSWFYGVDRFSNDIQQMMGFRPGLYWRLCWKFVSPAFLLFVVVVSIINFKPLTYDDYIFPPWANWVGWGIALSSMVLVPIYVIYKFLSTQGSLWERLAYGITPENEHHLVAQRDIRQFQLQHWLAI"}, "Adenosine receptor A2a": {"target": "Adenosine receptor A2a (Homo sapiens, UniProt P29274)", "sequence (P29274 whole entry)": "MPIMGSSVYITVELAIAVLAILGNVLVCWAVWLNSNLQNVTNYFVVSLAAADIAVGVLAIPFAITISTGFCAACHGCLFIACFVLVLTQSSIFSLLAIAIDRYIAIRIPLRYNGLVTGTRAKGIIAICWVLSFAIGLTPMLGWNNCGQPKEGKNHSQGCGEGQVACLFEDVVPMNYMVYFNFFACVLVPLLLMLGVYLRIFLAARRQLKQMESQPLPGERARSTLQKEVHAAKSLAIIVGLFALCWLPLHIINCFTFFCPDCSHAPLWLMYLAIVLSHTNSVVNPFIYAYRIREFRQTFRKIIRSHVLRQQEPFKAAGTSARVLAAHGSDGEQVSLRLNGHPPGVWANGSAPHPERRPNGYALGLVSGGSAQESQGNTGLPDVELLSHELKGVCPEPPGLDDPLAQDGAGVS"}, "[4]": {"target": "Sodium-dependent dopamine transporter (Homo sapiens, UniProt Q01959)", "sequence (Q01959 whole entry)": "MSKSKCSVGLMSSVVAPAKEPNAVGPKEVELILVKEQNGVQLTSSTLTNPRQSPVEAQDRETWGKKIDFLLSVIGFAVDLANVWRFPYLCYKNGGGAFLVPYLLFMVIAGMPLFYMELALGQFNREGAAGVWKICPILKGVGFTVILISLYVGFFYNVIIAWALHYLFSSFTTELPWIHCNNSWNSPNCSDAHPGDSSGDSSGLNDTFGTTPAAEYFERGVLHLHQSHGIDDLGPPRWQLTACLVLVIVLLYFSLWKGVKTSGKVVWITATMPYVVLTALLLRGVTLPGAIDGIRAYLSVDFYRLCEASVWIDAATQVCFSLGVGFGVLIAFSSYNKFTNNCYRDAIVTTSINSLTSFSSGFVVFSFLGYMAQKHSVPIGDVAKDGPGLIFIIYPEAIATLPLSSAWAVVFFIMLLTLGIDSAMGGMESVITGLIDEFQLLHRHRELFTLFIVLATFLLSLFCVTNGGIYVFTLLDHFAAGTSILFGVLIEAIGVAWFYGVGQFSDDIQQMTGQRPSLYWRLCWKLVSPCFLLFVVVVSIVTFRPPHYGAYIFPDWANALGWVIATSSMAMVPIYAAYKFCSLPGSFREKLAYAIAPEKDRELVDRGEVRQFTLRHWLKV"}, "[5]": {"target": "cGMP-inhibited 3',5'-cyclic phosphodiesterase 3A (Homo sapiens, UniProt Q14432)", "sequence (Q14432 whole entry)": "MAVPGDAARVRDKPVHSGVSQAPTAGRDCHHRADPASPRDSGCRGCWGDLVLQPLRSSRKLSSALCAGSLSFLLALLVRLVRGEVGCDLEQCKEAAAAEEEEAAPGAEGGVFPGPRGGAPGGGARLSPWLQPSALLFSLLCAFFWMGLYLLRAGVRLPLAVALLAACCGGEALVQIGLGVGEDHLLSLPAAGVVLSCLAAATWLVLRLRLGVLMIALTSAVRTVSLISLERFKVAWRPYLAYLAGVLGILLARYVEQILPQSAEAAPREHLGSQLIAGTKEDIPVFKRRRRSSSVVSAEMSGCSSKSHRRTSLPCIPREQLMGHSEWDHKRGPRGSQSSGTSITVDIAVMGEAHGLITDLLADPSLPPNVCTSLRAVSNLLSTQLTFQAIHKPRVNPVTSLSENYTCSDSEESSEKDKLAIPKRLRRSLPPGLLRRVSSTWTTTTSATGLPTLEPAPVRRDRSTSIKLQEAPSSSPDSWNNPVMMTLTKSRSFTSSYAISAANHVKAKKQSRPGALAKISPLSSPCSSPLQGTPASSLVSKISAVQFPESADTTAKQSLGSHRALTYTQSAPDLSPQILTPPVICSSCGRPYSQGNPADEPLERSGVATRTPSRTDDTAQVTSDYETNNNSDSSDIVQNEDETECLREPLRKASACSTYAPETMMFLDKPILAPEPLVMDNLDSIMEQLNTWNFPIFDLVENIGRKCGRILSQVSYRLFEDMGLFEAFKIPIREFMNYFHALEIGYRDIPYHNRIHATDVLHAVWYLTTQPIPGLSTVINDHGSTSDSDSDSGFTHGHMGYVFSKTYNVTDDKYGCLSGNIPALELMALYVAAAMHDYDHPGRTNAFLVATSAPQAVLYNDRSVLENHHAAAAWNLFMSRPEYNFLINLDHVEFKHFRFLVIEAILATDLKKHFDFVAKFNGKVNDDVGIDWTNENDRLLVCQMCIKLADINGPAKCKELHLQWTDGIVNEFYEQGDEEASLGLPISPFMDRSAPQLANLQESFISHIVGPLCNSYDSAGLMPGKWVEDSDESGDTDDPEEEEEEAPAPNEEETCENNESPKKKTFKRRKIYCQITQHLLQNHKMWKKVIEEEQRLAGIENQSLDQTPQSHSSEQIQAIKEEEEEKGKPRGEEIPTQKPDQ", "type": "functional"}, "[6]": {"target": "T2, Alpha-2C adrenergic receptor (Homo sapiens, UniProt P18825)", "T2 sequence (P18825 whole entry)": "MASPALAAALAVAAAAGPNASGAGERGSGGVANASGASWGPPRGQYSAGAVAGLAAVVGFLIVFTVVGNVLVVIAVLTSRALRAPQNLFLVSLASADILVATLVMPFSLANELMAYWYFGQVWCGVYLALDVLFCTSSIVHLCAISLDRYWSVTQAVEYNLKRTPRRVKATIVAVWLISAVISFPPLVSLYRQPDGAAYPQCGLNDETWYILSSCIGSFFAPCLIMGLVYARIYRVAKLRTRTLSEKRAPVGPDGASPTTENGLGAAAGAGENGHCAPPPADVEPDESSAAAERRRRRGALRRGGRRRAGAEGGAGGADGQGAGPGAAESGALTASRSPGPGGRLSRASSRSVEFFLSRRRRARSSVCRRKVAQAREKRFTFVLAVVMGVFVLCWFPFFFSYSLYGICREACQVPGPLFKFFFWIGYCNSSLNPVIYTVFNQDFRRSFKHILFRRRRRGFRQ", "type": "functional"}, "[7]": {"target": "Gamma-aminobutyric acid receptor subunit alpha-1 (Rattus norvegicus, UniProt P62813)", "type": "functional"}, "[8]": {"target": "T3, Alpha-2B adrenergic receptor (Homo sapiens, UniProt P18089)", "T3 sequence (P18089 whole entry)": "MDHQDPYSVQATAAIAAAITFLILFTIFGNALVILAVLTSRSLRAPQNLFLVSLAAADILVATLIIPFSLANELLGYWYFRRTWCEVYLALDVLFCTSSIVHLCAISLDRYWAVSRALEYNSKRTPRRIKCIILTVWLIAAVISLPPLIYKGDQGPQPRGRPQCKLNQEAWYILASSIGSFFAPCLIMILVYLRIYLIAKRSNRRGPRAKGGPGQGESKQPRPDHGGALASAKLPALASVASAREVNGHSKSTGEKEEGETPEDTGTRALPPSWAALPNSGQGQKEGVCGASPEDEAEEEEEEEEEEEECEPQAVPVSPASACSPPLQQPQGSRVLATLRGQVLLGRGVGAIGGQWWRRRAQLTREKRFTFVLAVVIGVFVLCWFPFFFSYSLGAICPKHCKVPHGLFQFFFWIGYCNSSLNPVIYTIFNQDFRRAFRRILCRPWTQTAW"}, "[9]": {"target": "Kappa-type opioid receptor (Homo sapiens, UniProt P41145)"}, "[10]": {"target": "5-hydroxytryptamine receptor 2B (Homo sapiens, UniProt P41595)", "sequence (P41595 whole entry)": "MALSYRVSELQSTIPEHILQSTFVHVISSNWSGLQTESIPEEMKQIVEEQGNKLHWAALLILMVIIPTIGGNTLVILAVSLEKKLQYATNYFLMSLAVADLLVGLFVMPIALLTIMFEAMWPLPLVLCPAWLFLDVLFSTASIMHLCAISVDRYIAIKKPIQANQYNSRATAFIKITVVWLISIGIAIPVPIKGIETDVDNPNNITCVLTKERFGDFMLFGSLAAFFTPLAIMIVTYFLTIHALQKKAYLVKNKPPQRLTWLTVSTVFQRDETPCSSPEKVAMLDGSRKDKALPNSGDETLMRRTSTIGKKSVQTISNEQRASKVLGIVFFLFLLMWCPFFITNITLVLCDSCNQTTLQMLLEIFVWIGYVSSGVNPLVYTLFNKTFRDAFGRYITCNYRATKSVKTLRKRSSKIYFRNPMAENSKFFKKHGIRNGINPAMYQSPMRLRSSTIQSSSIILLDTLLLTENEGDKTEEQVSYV", "type": "functional, cell-based"}, "Cannabinoid receptor 1": {"target": "Cannabinoid receptor 1 (Homo sapiens, UniProt P21554)", "type": "functional, cell-based"}, "Histamine H2 receptor": {"target": "Histamine H2 receptor (Homo sapiens, UniProt P25021)", "sequence (P25021 whole entry)": "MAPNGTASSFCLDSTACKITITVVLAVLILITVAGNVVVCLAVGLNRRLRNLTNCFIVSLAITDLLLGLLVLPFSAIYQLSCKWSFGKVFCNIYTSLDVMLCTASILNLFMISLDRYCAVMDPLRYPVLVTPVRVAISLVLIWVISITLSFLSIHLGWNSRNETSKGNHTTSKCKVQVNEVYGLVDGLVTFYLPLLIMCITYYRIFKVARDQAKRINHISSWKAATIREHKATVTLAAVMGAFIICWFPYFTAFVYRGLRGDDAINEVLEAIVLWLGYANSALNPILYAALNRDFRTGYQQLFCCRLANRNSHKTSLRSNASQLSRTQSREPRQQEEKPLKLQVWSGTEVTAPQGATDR", "type": "functional, cell-based"}, "[11]": {"target": "T4, 5-hydroxytryptamine receptor 1A (Homo sapiens, UniProt P08908)", "T4 sequence (P08908 whole entry)": "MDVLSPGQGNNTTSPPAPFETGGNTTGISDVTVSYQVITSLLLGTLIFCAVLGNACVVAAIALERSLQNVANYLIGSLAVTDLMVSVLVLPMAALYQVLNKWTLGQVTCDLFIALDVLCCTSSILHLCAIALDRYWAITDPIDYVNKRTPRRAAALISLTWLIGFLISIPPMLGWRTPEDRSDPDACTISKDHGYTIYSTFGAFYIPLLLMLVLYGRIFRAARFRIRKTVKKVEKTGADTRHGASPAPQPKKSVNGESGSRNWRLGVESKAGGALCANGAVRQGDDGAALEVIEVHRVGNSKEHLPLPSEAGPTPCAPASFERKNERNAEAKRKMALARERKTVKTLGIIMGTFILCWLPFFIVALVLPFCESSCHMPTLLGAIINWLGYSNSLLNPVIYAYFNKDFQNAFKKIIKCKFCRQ", "type": "functional, cell-based"}}, "data": [{"smiles": "O=C(O)c1cccc(-c2noc(-c3ccccc3F)n2)c1", "values": [{"measurement": "AC50", "setting": "[1]", "value": 5.3, "unit": "µM"}, {"measurement": "AC50", "setting": "[2]", "value": "> 30", "unit": "µM"}, {"measurement": "AC50", "setting": "[3]", "value": "> 30", "unit": "µM"}, {"measurement": "AC50", "setting": "Adenosine receptor A2a", "value": "> 30", "unit": "µM"}, {"measurement": "AC50", "setting": "[4]", "value": "> 30", "unit": "µM"}, {"measurement": "AC50", "setting": "[5]", "value": "> 30", "unit": "µM"}, {"measurement": "AC50", "setting": "[6]", "value": "> 10", "unit": "µM"}]}, {"smiles": "O=C(Nc1ccccc1)OCC(CN1CCCCC1)OC(=O)Nc1ccccc1", "note": "(stereo not given) [DIPERODON]", "values": [{"measurement": "AC50", "setting": "[7]", "value": "> 10", "unit": "µM"}, {"measurement": "AC50", "setting": "[1]", "value": "> 10", "unit": "µM"}, {"measurement": "AC50", "setting": "[2]", "value": "> 30", "unit": "µM"}, {"measurement": "AC50", "setting": "[3]", "value": 1.1, "unit": "µM"}, {"measurement": "AC50", "setting": "Adenosine receptor A2a", "value": "> 30", "unit": "µM"}, {"measurement": "AC50", "setting": "[8]", "value": "> 10", "unit": "µM"}, {"measurement": "AC50", "setting": "[9]", "value": 1.42, "unit": "µM"}, {"measurement": "AC50", "setting": "[10]", "value": 15, "unit": "µM"}, {"measurement": "AC50", "setting": "[4]", "value": 6.69, "unit": "µM"}, {"measurement": "AC50", "setting": "Cannabinoid receptor 1", "value": "> 30", "unit": "µM"}, {"measurement": "AC50", "setting": "Histamine H2 receptor", "value": "> 10", "unit": "µM"}, {"measurement": "AC50", "setting": "[11]", "value": "> 10", "unit": "µM"}, {"measurement": "AC50", "setting": "[5]", "value": "> 10", "unit": "µM"}, {"measurement": "AC50", "setting": "[6]", "value": "> 10", "unit": "µM"}]}, {"smiles": "CS(=O)(=O)Nc1cc2occ(NC=O)c(=O)c2cc1Oc1ccccc1", "note": "[IGURATIMOD]", "values": [{"measurement": "AC50", "setting": "[1]", "value": "> 30", "unit": "µM"}, {"measurement": "AC50", "setting": "[2]", "value": "> 10", "unit": "µM"}, {"measurement": "AC50", "setting": "[3]", "value": "> 30", "unit": "µM"}, {"measurement": "AC50", "setting": "[10]", "value": "> 30", "unit": "µM"}, {"measurement": "AC50", "setting": "[4]", "value": "> 30", "unit": "µM"}, {"measurement": "AC50", "setting": "[5]", "value": "> 30", "unit": "µM"}, {"measurement": "AC50", "setting": "[6]", "value": "> 30", "unit": "µM"}]}, {"smiles": "CCN(CC)CCNc1ccc(C)c2sc3ccccc3c(=O)c12", "note": "[LUCANTHONE]", "values": [{"measurement": "AC50", "setting": "[2]", "value": "> 30", "unit": "µM"}]}, {"smiles": "CCC1(c2cccc(O)c2)CCCCN(C)C1", "note": "(stereo not given) [MEPTAZINOL]", "values": [{"measurement": "AC50", "setting": "[2]", "value": "> 30", "unit": "µM"}]}, {"smiles": "CC(=O)OC(C)C[N+](C)(C)C", "note": "(stereo not given) [METHACHOLINE]", "values": [{"measurement": "AC50", "setting": "[2]", "value": "> 30", "unit": "µM"}]}, {"smiles": "C1N2CN3CN1CN(C2)C3", "note": "[METHENAMINE]", "values": [{"measurement": "AC50", "setting": "[2]", "value": "> 30", "unit": "µM"}]}, {"smiles": "COc1ccc2c(c1)OC(C)(C)C(c1ccccc1)C2c1ccc(OCCN2CCCC2)cc1", "note": "(stereo not given) [ORMELOXIFENE]", "values": [{"measurement": "AC50", "setting": "[2]", "value": "> 30", "unit": "µM"}]}, {"smiles": "Oc1cccc2cccnc12", "note": "[OXYQUINOLINE]", "values": [{"measurement": "AC50", "setting": "[2]", "value": "> 30", "unit": "µM"}]}, {"smiles": "Nc1nc2c(ncn2CCC(CO)CO)c(=O)[nH]1", "note": "[PENCICLOVIR]", "values": [{"measurement": "AC50", "setting": "[2]", "value": "> 30", "unit": "µM"}]}, {"smiles": "CC[C@@H]1/C=C(\\C)C[C@H](C)C[C@H](OC)[C@H]2O[C@@](O)(C(=O)C(=O)N3CCCC[C@H]3C(=O)O[C@H](/C(C)=C/[C@@H]3CC[C@H](Cl)[C@H](OC)C3)[C@H](C)[C@@H](O)CC1=O)[C@H](C)C[C@@H]2OC", "note": "[PIMECROLIMUS]", "values": [{"measurement": "AC50", "setting": "[2]", "value": "> 30", "unit": "µM"}]}, {"smiles": "CC(C(=O)O)c1ccc2c(c1)Cc1cccnc1O2", "note": "(stereo not given) [PRANOPROFEN]", "values": [{"measurement": "AC50", "setting": "[2]", "value": "> 30", "unit": "µM"}]}, {"smiles": "CCO[C@@H](Cc1ccc(OCCn2c(C)ccc2-c2ccc(SC)cc2)cc1)C(=O)O", "note": "[SAROGLITAZAR]", "values": [{"measurement": "AC50", "setting": "[2]", "value": "> 30", "unit": "µM"}]}, {"smiles": "CN1CCC2=C(C1)c1ccccc1Cc1ccccc12", "note": "[SETIPTILINE]", "values": [{"measurement": "AC50", "setting": "[2]", "value": "> 30", "unit": "µM"}]}, {"smiles": "COc1ccc(CCC(C)NCC(O)c2ccc(O)c([S+](C)[O-])c2)cc1", "note": "(stereo not given) [SULFINALOL]", "values": [{"measurement": "AC50", "setting": "[2]", "value": "> 30", "unit": "µM"}]}, {"smiles": "O=C1CCC(N2C(=O)c3ccccc3C2=O)C(=O)N1", "note": "(stereo not given) [THALIDOMIDE]", "values": [{"measurement": "AC50", "setting": "[7]", "value": "> 10", "unit": "µM"}, {"measurement": "AC50", "setting": "[1]", "value": "> 10", "unit": "µM"}, {"measurement": "AC50", "setting": "[2]", "value": "> 30", "unit": "µM"}, {"measurement": "AC50", "setting": "[3]", "value": "> 10", "unit": "µM"}, {"measurement": "AC50", "setting": "Adenosine receptor A2a", "value": "> 30", "unit": "µM"}, {"measurement": "AC50", "setting": "[9]", "value": "> 10", "unit": "µM"}, {"measurement": "AC50", "setting": "[10]", "value": "> 10", "unit": "µM"}, {"measurement": "AC50", "setting": "[4]", "value": "> 10", "unit": "µM"}, {"measurement": "AC50", "setting": "Cannabinoid receptor 1", "value": "> 30", "unit": "µM"}, {"measurement": "AC50", "setting": "Histamine H2 receptor", "value": "> 10", "unit": "µM"}, {"measurement": "AC50", "setting": "[11]", "value": "> 10", "unit": "µM"}, {"measurement": "AC50", "setting": "[5]", "value": "> 30", "unit": "µM"}, {"measurement": "AC50", "setting": "[6]", "value": "> 10", "unit": "µM"}]}, {"smiles": "CCC1C(C)=NN=C(c2ccc(OC)c(OC)c2)c2cc(OC)c(OC)cc21", "note": "(stereo not given) [TOFISOPAM]", "values": [{"measurement": "AC50", "setting": "[2]", "value": "> 30", "unit": "µM"}]}, {"smiles": "C[C@@H]1O[C@@H](OC[C@H]2O[C@@H](Oc3c(-c4ccc(OCCO)c(OCCO)c4)oc4cc(OCCO)cc(O)c4c3=O)[C@H](O)[C@@H](O)[C@@H]2O)[C@H](O)[C@H](O)[C@H]1O", "note": "[TROXERUTIN]", "values": [{"measurement": "AC50", "setting": "[2]", "value": "> 30", "unit": "µM"}]}]}
